Experimental data published in US20230162361A1, “ASSESSMENT OF SKIN TOXICITY IN AN IN VITRO TISSUE SAMPLES USING DEEP LEARNING” (Genentech, Inc., priority 2020, published 2023).
Read-outs that look alike come from different tables or passages of the source.

How the values were obtained:
skin = conditions: cited from earlier work; for Skin tox.: clinical skin toxicity (rash, pruritus, acne, dermatitis, alopecia, dry skin) in labels or publications; for clinical toxicity: clinical skin toxicity
[1] = cited from earlier work
[2] = test system: reconstructed human epidermis (RHE) samples; test: 3D in vitro reconstructed human epidermis (RHE) model, viable epidermal thickness measured with the machine-learning model after 4-day treatment
Excerpt: A decrease in epidermal thickness of the skin may be a toxicity indication for skin toxicities as well as for cutaneous disease. For example, one can calculate a percentage by dividing the epidermal thickness of the skin after the treatment by a drug compound by the epidermal thickness before the treatment. If the percentage is smaller than 10%, it may indicate very severe toxicity; if the percentage is between 10% and 50%, it may indicate severe toxicity; if the percentage is between 50% and […], it may indicate mild toxicity; and if the percentage is larger than 90%, it may indicate rare or no toxicity. There are few preclinical methods for evaluating in vivo skin toxicity prior to clinical trial. The last two decades have seen the advent of in vitro human skin models, which have a proven record of accurately predicting clinical skin toxicity. FIG. 3A illustrates an example reconstructed human epidermis (RHE) model 300. These reconstituted human epidermal (RHE) models 300 may be metabolically and mitotically active 3D models of the normal human epidermis derived from cultured human epidermal keratinocytes. The RHE models 300 may have in vivo-like morphology and growth characteristics. […] The RHE models 300 may have keratinocytes only but no dermis, vasculature or immune/inflammatory cells.
FIG. 5A illustrates an example annotation of an RHE sample 310 with tissue sections. […] After the epidermal area is identified, the thickness of the viable epidermal area may be computed, e.g., based on distance transformation. In particular embodiments, the median thickness value may be used to represent the thickness of the viable epidermal area for each tissue section and the average thickness of the two tissue sections of a RHE sample 310 may be used to represent a single RHE sample 310. FIG. 5B illustrates an example extraction of thickness of a tissue sample. […] The digital pathology image processing system 110 may then quantify, based on the centerline, a thickness value for each of the plurality of locations. […] This way, the thickness of each tissue sample (e.g., RHE sample 310) may be normalized. FIG. 5C illustrates an example normalization of the tissue thickness. […] The left subfigure of FIG. 5C may show the originally measured thickness whereas the right subfigure of FIG. 5C may show the normalized thickness. Although this disclosure describes calculating normalized thickness in a particular manner, this disclosure contemplates calculating normalized thickness in any suitable manner. As an example and not by way of limitation, the digital pathology image processing system may determine a plurality of stepwise thickness measurements along an axis determined based on the epidermal layer, calculate a length and area of the epidermal layer with the thickness being derived from them, and then calculate the normalized thickness accordingly.
The embodiments disclosed herein further conduct a retrospective study based on RHE samples 310 from five studies that evaluated the skin toxicity of various compounds. The 3D in vitro human skin model was used for all studies. A total of 31 compounds with known or suspected clinical skin toxicity were evaluated for skin toxicity, some of which were evaluated in more than one study. Upon receipt of the RHE samples 310, each tissue culture insert was transferred to a well of 6-well plate containing 1 mL/well of pre-warmed maintenance media and kept dry on top to maintain an air-liquid interface. The RHE samples 310 were equilibrated at 37° C., 5% CO2 overnight, and fed with fresh media the next day. One day later, the RHE samples 310 were subjected to 4-day daily basolateral treatment with test articles at various concentrations, or vehicle control DMSO at 0.5%.

[3] = clinical exposure, maximal free concentrations measured in plasma
[4] = marked *: plasma protein binding unavailable, total concentration used
[5] = mean, normalized to control, test concentration 2 uM
[6] = mean, normalized to control, test concentration 10 uM

SMILES	Skin tox. (skin)	clinical toxicity (skin)	Cmax_free [1, 3] [µM]	change in epidermal thickness versus control (FIG. 11A) [2]	Normalized thickness ([2]; human, 4 days, 1 uM)	Normalized thickness ([2]; human, 4 days, 10 uM)	other results
CN(C)C/C=C/C(=O)Nc1cc2c(Nc3ccc(F)c(Cl)c3)ncnc2cc1O[C@H]1CCOC1 [Afatinib]	Yes	demonstrated clinical toxicity	0.0042	significant decrease in epidermal thickness	0.70	0.77	
Cc1nc(NC(=O)N2CCC[C@H]2C(N)=O)sc1-c1ccnc(C(C)(C)C(F)(F)F)c1 [Alpelisib]	Yes	demonstrated clinical toxicity	0.61	significant decrease in epidermal thickness			Normalized thickness ([2]; human, 4 days, 0.32 uM): 0.75; Normalized thickness ([2]; human, 4 days, 3.2 uM): 0.45
O=C(c1ccc(F)c(F)c1Nc1ccc(I)cc1F)N1CC(O)([C@@H]2CCCCN2)C1 [Cobimetinib]	Yes	demonstrated clinical toxicity	0.03	significant decrease in epidermal thickness	0.71		Normalized thickness ([2]; human, 4 days, 0.02 uM): 0.91
C#Cc1cccc(Nc2ncnc3cc(OCCOC)c(OCCOC)cc23)c1 [Erlotinib]	Yes	demonstrated clinical toxicity	0.38	significant decrease in epidermal thickness	0.53	0.41	Normalized thickness ([2]; human, 4 days, 2 uM): 0.75
CC[C@H](Nc1ncnc2[nH]cnc12)c1nc2cccc(F)c2c(=O)n1-c1ccccc1 [Idelalisib]	Yes		0.84				Normalized thickness ([2]; human, 4 days, 0.08 uM): 0.95; Normalized thickness ([2]; human, 4 days, 0.8 uM): 1.00
Cn1cc(-c2ccc3nnc(C(F)(F)c4ccc5ncccc5c4)n3n2)cn1 [Jnj-38877605]	No						Cmax_free [1, 4]: 0.13* uM; Normalized thickness [2, 5]: 0.82; Normalized thickness [2, 6]: 0.91
CS(=O)(=O)CCNCc1ccc(-c2ccc3ncnc(Nc4ccc(OCc5cccc(F)c5)c(Cl)c4)c3c2)o1 [Lapatinib]	Yes	demonstrated clinical toxicity	0.000039	significant decrease in epidermal thickness	0.66	0.47	
C=CC(=O)Nc1cc(Nc2nccc(-c3cn(C)c4ccccc34)n2)c(OC)cc1N(C)CCN(C)C [Osimertinib]	Yes	demonstrated clinical toxicity	0.025	significant decrease in epidermal thickness	0.61	0.76	Normalized thickness ([2]; human, 4 days, 0.3 uM): 0.85; median normalized thickness ([2]; human, 4 days, 300 nM): 0.80; Normalized thickness ([2]; human, 4 days, 3 uM): 0.45
CC(=O)c1c(C)c2cnc(Nc3ccc(N4CCNCC4)cn3)nc2n(C2CCCC2)c1=O [Palbociclib]	Yes						Normalized thickness ([2]; human, 4 days, 0.023 uM): 1.02; Normalized thickness ([2]; human, 4 days, 0.23 uM): 0.99
OCCn1cc(-c2cnc3nnn(Cc4ccc5ncccc5c4)c3n2)cn1 [Pf-04217903]	No	did not exhibit clinical toxicity	0.015				normalized epidermal thickness decrease ([2]; 10 µM): greater than 20%; Normalized thickness [2, 5]: 0.91; Normalized thickness [2, 6]: 0.72; change in epidermal thickness versus control (FIG. 11A) ([2]; normalized viable epidermal thickness, multiple comparison, result in words): significant decrease in epidermal thickness
CS(=O)(=O)N1CCN(Cc2cc3nc(-c4cccc5[nH]ncc45)nc(N4CCOCC4)c3s2)CC1 [Pictilisib]				significant decrease in epidermal thickness	0.46		Normalized thickness ([2]; human, 4 days, 0.02 uM): 0.94
C=CC(=O)N1CCC(Oc2cc3c(Nc4ccc(Cl)c(Cl)c4F)ncnc3cc2OC)CC1 [Poziotinib]	Yes	demonstrated clinical toxicity	0.0021	significant decrease in epidermal thickness	0.65	0.73	Normalized thickness ([2]; human, 4 days, 0.3 uM): 0.72
N#CC[C@H](C1CCCC1)n1cc(-c2ncnc3[nH]ccc23)cn1 [Ruxolitinib]	No	did not exhibit clinical toxicity	0.033	significant decrease in epidermal thickness		0.81	Normalized thickness ([2]; human, 4 days, 2 uM): 0.85
CNC(=O)c1cc(Oc2ccc(NC(=O)Nc3ccc(Cl)c(C(F)(F)F)c3)cc2)ccn1 [Sorafenib]	Yes		0.07	failed to cause any meaningful change in epidermal thickness			Normalized thickness ([2]; human, 4 days, 0.5 uM): 0.87; Normalized thickness ([2]; human, 4 days, 5 uM): 0.85
C[C@@H]1CCN(C(=O)CC#N)C[C@@H]1N(C)c1ncnc2[nH]ccc12 [Tofacitinib]	No	did not exhibit clinical toxicity		significant decrease in epidermal thickness		0.82	Normalized thickness ([2]; human, 4 days, 2 uM): 0.84
COC(=O)Nc1nc2cc(C3(O)c4ccccc4C(=O)N3c3cc(Cl)ccc3C)ccc2[nH]1 (centres unmarked) [XL281]	No			increase in epidermal thickness			Cmax_free [1, 4]: 4.5* uM; Normalized thickness ([2]; human, 4 days, 0.5 uM): 1.14; Normalized thickness ([2]; human, 4 days, 5 uM): 0.89
